Assay results from PMC9301969 (ACS Omega, 2022).

Target: human serum albumin (HSA, nonglycated) (Homo sapiens, UniProt P02768)
Assay: fluorescence polarization
Format: binding

Sequence of human serum albumin (HSA, nonglycated) (P02768 25-609): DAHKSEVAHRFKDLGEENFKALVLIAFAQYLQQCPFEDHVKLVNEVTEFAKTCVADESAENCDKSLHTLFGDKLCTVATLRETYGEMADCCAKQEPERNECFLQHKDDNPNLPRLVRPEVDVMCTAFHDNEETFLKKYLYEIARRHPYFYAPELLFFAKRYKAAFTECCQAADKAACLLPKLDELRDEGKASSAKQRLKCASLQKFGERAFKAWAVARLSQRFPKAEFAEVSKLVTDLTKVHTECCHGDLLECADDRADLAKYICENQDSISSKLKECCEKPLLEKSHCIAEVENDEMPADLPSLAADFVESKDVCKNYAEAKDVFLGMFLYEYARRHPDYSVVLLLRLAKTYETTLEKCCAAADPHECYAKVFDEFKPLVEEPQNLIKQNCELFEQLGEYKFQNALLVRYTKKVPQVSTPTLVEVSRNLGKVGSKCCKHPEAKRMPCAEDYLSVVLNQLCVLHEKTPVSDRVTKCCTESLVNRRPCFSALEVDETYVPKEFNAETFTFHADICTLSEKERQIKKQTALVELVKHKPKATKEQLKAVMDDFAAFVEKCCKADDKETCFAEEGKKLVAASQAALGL

Kd: 2 µM
SMILES: O=C(O)CCN(Cc1ccc(C(F)(F)F)cc1B(O)O)Cc1c2ccccc2c(CN(CCC(=O)O)Cc2ccc(C(F)(F)F)cc2B(O)O)c2ccccc12 [compound 8, 3,3′-((anthracene-9,10-diylbis(methylene))bis((2-borono-4-(trifluoromethyl)benzyl)azanediyl))dipropionic acid]
